Experimental data as given in a melting point compilation (Tetko et al.; mined from patent text by program, amines drawn as free bases though some values may be those of a salt).

SMILES	melting point
CCCCCCCCCCCCCCCCCCOc1cccc(N)c1	77 to 78 °C
N#CC(C#N)=C(Cl)c1ccc(C(Cl)=C(C#N)C#N)cc1	177 to 179 °C
COC(=O)/C=C/n1cnc2c(C)cc(C)cc2c1=O	139 to 141 °C
COc1cc(CNC(=O)c2nc3scc(COCc4ccc(C(=O)O)cc4)c3c(=O)[nH]2)ccc1F	225 to 226 °C
Cc1cc2c(c(C)c1C)C(C)(C)CCC2(C)C	79 to 82 °C
CCc1nc(/C=C/c2cccc(O)c2)sc1C	161 to 162 °C
CC1Cc2ccc(N3C(=O)C4=C(CCCC4)C3=O)cc2O1 (centres undefined)	114 to 118 °C
COC(=O)C(Cc1cc([N+](=O)[O-])ccc1Cl)C(=O)OC	72 to 74 °C
O=C(O)CCCCCCCCn1nc(-c2ccccc2)c(-c2ccccc2)n1	84 to 85 °C
CC#CCOc1cc(/C=C/C(=O)Nc2cc(Cl)ccc2C(=O)NC)ccc1OC	172 to 173 °C
COCCOc1cc(NS(=O)(=O)c2ccccn2)c2[nH]c(C3=NCC(CN4CCS(=O)CC4)S3)cc2c1 (centres undefined)	235 to 236 °C
COCCn1cc(C(=O)NCc2ccc(Cl)cc2)c(=O)c2cc(CN(C)C[C@@H](O)c3ccccc3)sc21	105 to 106 °C
COC1CCN2C(=O)c3cccc(N)c3C2C1 (centres undefined)	60 to 62 °C
FC(F)C(F)(F)Oc1cccc(Nc2nccc(-c3ccc(Cl)cc3)n2)c1	133 to 135 °C
CCN(CC)c1ccc(C2(c3c(C)n(CC)c4ccccc34)OC(=O)c3ccccc32)c(N(CC)CC)c1 (centres undefined)	139 to 140 °C
COc1cccc(CC(NC(=O)CCl)c2ccccc2)c1 (centres undefined)	104 to 105 °C
CCOC(=O)C1=C2CCCN2C(C)=C(C(=O)OC)C1c1cccc([N+](=O)[O-])c1 (centres undefined)	120 °C
CC1(c2cc(-c3cccc(C=C4SC(N5CCCC5)=NC4=O)c3)ccc2O)CCCCC1	278 to 280 °C
COc1cccc2c1CCCC2(O)CN (centres undefined)	129 to 130 °C
O=C(Nc1cccnn1)N1CCN(c2nccc(-c3cc(F)ccc3F)n2)CC1	271 to 272 °C
CSC1=C([N+](=O)[O-])CCN1	207 to 209 °C
CC(C)n1nc(-c2ncc(O)nc2-c2ccccc2)ccc1=O	225 to 227 °C
CCCCCC(=O)c1c(C)n(C(C)=O)c(=O)n1C(C)=O	71 to 72 °C
OCc1cccc2c1CCc1ccsc1-2	99 to 100 °C
COC(=O)C1=NNC(C)=C(C(=O)OC)C1c1ccccc1[N+](=O)[O-] (centres undefined)	203 to 205 °C
COc1ccc(C(=O)c2c(C)n3c4c(cccc24)OCC3CN2CCOCC2)cc1 (centres undefined)	182 to 189 °C

SMILES	melting point
ClCCCCCCCCOc1ccc2ccccc2c1	35 °C
COc1ccc(C(=O)c2[nH]c(=O)[nH]c2COC(C)=O)cc1	155 to 162 °C
CCOc1nn(-c2ccc(C(F)(F)F)cn2)cc1CCCOc1cccc(OC)c1CC(=O)O	150 to 151 °C
O=c1c2[nH]c(Cl)nc2n(CC2CC2)c(=O)n1CC1CC1	220 °C
CCC(Cl)C(=O)NCCSc1nc(C(C)(C)C)n[nH]1 (centres undefined)	68 to 70 °C
c1cnc2c(c1)-c1sccc1C2Cc1ccncc1 (centres undefined)	178 to 181 °C
Nc1ncnc2c1c(-c1ccc(Oc3ccccc3)cc1)cn2CCO	144 to 145 °C
CSC(C(=O)O)c1ccco1 (centres undefined)	62 to 62.5 °C
CCS(=O)(=O)Nc1cc(-c2ncnc(C(F)F)c2Cl)c(Cl)cc1Cl	140 to 142 °C
CCCCOc1cc(CCS(=O)(=O)NC(=O)OCC(C)C)n(Cc2ccc(Cl)cc2Cl)n1	114 to 116 °C
O=C(O)c1cccc(-c2cc3c(Nc4cccc(Cl)c4)ncnc3[nH]2)c1	> 300 °C
Cc1cccc(C)c1NC(=O)C=CC(=O)c1ccc(Cl)c(Cl)c1	213 to 215 °C
O=C1c2ccccc2C(=O)N1CCCCSc1ccncc1	106 to 108 °C
O=C1CCN(C(=O)c2cc(C(F)(F)F)cc(C(F)(F)F)c2)CC1	155 to 157 °C
Nc1nc2c(s1)CCN(CC=Cc1cccc(F)c1)CC2	128 to 132 °C
Cn1ncc(N2CCCC2)c(-c2ccccc2C=NO)c1=O	239 °C
CCc1cc(C)cc(CC)c1C1C(=O)C2=CC(CCC(C)=NOC)CC2C1=O (centres undefined)	79 to 80 °C
CS(=O)c1ccc(C#N)cc1 (centres undefined)	87 to 90 °C
COC(=O)c1ccc(OCCCC#N)c(Cl)c1	144 °C
CC(=O)c1ccsc1C(=O)O	155 to 156 °C
COC(=S)NN=C1C(=O)Nc2ccc(C3=NNC(=O)SC3C)cc21 (centres undefined)	245 °C
COC(=O)c1cc(N=Nc2ccc(S(=O)(=O)Nc3ccccn3)cc2)ccc1OC(C)=O	204 to 207 °C
COc1ccc(Cn2c(=O)ccc3cnc(Cl)cc32)cc1Cl	208 to 210 °C
CC1=CC2CC(O)CCC2(C)C2=C1C1CCC(C(C)CCCC(C)C)C1(C)CC2 (centres undefined)	112 to 113 °C
COc1cc2c(cc1Nc1ncc(Cl)c(Nc3ccccc3-n3cccn3)n1)CCN(CC(=O)N(C)C)CC2	66 to 67 °C
COc1cc(CCc2ccc(N)nn2)cc(OC)c1OC	130 to 132 °C

SMILES	melting point
COC(=O)CCC(=O)c1ccc2c(c1)CC(CO)O2 (centres undefined)	70 to 72 °C
CC(C)(C)OC(=O)NN=Cc1cccc(C#N)c1	115 to 158 °C
ON=Cc1ccncc1	180 to 182 °C
CC(=O)OC1CSC(Oc2ccc(-c3cccnc3Cl)nc2)C(OC(C)=O)C1OC(C)=O (centres undefined)	180 °C
COC(=O)COCc1cc(Br)ccc1C(=O)OC	60 to 62 °C
O=[N+]([O-])c1cccc(CNc2nnn[nH]2)c1	208 to 210 °C
C=C(C)Cc1cc2c(cc1O)CC(=O)N2CC	118 to 120 °C
O=C(CCl)Nc1c(S)cccc1Cl	186 to 187 °C
O=C(O)c1cccc2c1CCc1ccccc1C2=O	188 to 189 °C
O=C(Nc1cccc(Oc2ccc(Cl)cc2)c1)c1ccn2c1CSC2c1cccnc1 (centres undefined)	140 °C
O=C(c1ccccc1)c1cccc2c(CC(C(=O)O)C(=O)O)c[nH]c12	188 to 189 °C
CN1CCN(CCCNc2nc(N)c(C(=O)c3ccc(Cl)s3)s2)CC1	184 °C
CN(C)S(=O)(=O)NC1CCC(CCN2CCC(c3cccc4c3CCO4)CC2)CC1 (centres undefined)	122 °C
OCN1CCN=C1CC(c1ccccc1)c1ccccc1	161 to 163 °C
CCOC(=O)C(=CC(C)c1ccc(Br)cc1)CC(=O)O (centres undefined)	107 °C
COC(=O)c1cc(=NS(=O)(=O)c2ccccc2)c2ccccc2o1	144 to 146 °C
CC(=O)Nc1ncc(C23CCCN(CC2)C3)o1 (centres undefined)	142 to 143 °C
Nc1[nH]ncc1C(=O)c1cccs1	114 to 115 °C
CCOC(=O)C(CCCCCN1C(=O)c2ccccc2C1=O)(NC(C)=O)C(=O)OCC	70 to 72 °C
CCc1[nH]c2cc(C)c(Oc3ccc(OC(F)(F)F)cc3)cc2c(=O)c1C	281 to 283 °C
CCCCN1CCC(CNC(=O)c2ccc(N)n3cc(Cl)nc23)CC1	113 °C
O=C(O)c1ccc(OCCCc2cc(-c3ccc(C(F)(F)F)cc3)no2)cc1	221 to 222 °C
Cc1cc2cc(CN3CCC(CCCC(N)=O)CC3)cnc2cc1NC(=O)c1ccc(-c2ccc(F)cc2)cc1	228 °C
O=C(COc1cc(-c2cccc(Cl)c2)nc2ccccc12)N1CCOCC1	131 °C
Cc1nnc(-c2ccnc(NCc3ccccn3)c2)o1	137 to 138 °C
CN1c2nnnn2-c2ccc(C(O)(c3ccc(Cl)cc3)c3cncn3C)cc2C1c1cccc(Cl)c1 (centres undefined)	235 °C

SMILES	melting point
CCc1cccc(CC)c1NC(=O)NC1CCC(c2ccccc2)CC1 (centres undefined)	247 to 249 °C
CCS(=O)(=O)n1cc(C(=O)C2CSC(c3cccnc3)N2)c2ccc(OCc3ccccc3)cc21 (centres undefined)	76 to 82 °C
O=c1[nH]cnc2sc(Br)cc12	304 °C
O=C(NCCCCCn1cnc2cnc3ccccc3c21)c1ccccc1	172 °C
COc1ccc(C2=NOC3(CCOC3=O)C2)cc1OC1CCCC1 (centres undefined)	152 to 153 °C
CC(=O)Nc1ccc2nc(NC3=NCCN3)[nH]c2c1	294 °C
O=C(O)Cc1ccc(C(=O)c2ccc(Cl)cc2)[nH]1	210 °C
Cc1sc(C)c2c1CCCC2(O)c1cn(C(c2ccccc2)(c2ccccc2)c2ccccc2)cn1 (centres undefined)	111 to 115 °C
CCCCNC(=O)N(C(=O)NCCCC)c1c(OC(=O)N(CC)CC)nc(C)c2cc(OC)c(OC)cc12	138 to 140 °C
C#CC(=O)NCCCCC	59 to 60.2 °C
CCCN=C(N)Nc1ccnc(C(CCC)C(=N)N)n1 (centres undefined)	202 to 205 °C
CC(O)c1cc(C(C)O)cc(S(N)(=O)=O)c1 (centres undefined)	175 to 177 °C
Cc1c(C(=O)NCc2ccc3c(Br)c(OCc4nnn[nH]4)ccc3c2)oc2ccccc12	212 to 215 °C
O=C(O)COc1cc(F)ccc1C(=O)NCc1cccc([N+](=O)[O-])c1	148 to 151 °C
COc1ccc(N(CC(=O)OC(C)(C)C)C(=O)CNC(=O)Nc2cccc(C)c2)cc1	158 °C
CSCCC(=O)Nc1sc(-c2cccnc2)nc1SC	72 to 74 °C
CCN(CC)CCn1nc2c3c(cccc31)C(=O)c1c(NCCNCCO)cccc1-2	129 to 132 °C
COc1cc(N)c(Cl)cc1C(=O)N(C)OC	134 to 135 °C
Cc1c(-c2ccccc2)c(C2=CC(N(C)C)CC2)c2oc(C3CC3)nc2c1C#N (centres undefined)	144 to 146 °C
Cc1cc(Oc2ccc3nc(COc4ccc(CC5SC(=O)NC5=O)cc4)n(C)c3c2)cc(C)c1NC(=O)Nc1ccc(C(F)(F)F)cc1 (centres undefined)	206 to 208 °C
COc1ccccc1C(=O)Nc1cc(C)ccc1C#N	147 to 149 °C
COC(=O)CC(=O)Nc1ccccc1COc1ccc(C(C)=O)c(O)c1	130 to 132 °C
CN(C)S(=O)(=O)C=C(C(=O)C1CCCCC1)c1cccc([N+](=O)[O-])c1	115 to 118 °C
O=C(c1ccccc1)c1cc([N+](=O)[O-])ccc1N(Cc1ccccc1)C(=O)CBr	149 °C
COc1ccc(C(=O)COc2ccccc2Br)cc1	104 °C
O=C1OCCC1=Cc1ccccc1OCC1CO1 (centres undefined)	68 to 70 °C
